# Measured values from patent publication US20130059783A1, “COMPOSITIONS AND METHODS FOR EXPANDING BFU-E CELLS” (priority 2010, published 2013).
# Legend:
# BFU-E cells [1] = assay: Serum free erythroid liquid expansion (SFELE) progenitor growth assay of sorted BFU-E cells; assay type: cell-based, mouse
# Experimental: (§1) FIGS. 1A-1F. […] Error bars show one standard deviation. […] Error bars show one standard deviation. […] Shown is the fraction of c-kit+ cells after 72 hours. […] Cell numbers in each clone were estimated under the microscope on Day 8.
# (§2) FIGS. 3A-3B. […] The experimental protocol was similar to that used in FIGS. 1A and B except that the CFU-E and BFU-E cells were purer (CD71 and CD24a^20% high and CD71 and CD24a^10% low, respectively). […] (A) Proliferation of sorted CFU-E cells. […] Error bars show one standard deviation. (B) Proliferation of sorted BFU-E cells. […] Error bars show one standard deviation.
# FIG. 4. […] Cells were counted from day 4 until the day cell counts dropped.
# (A) The total number of cells formed from 1000 BFU-E cells at different time points. […] Standard deviation between four separate biological experiments is shown in parenthesis (n/d=not determined).
# (§3) We developed a modified version of the serum free erythroid liquid expansion culture (SFELE) medium described by Dolzning et al. (Dolznig et al., 2006).
# CFU-E cells = assay: SFELE progenitor growth assay of sorted CFU-E cells; assay type: cell-based, mouse; conditions: CD71 and CD24a 20% high cells, 100 nM Dex and/or 333 μM DMOG
# Experimental: as §1, §2, §3
# BFU-E cells [2] = assay: CFU-E and BFU-E colony forming assays of BFU-E cells cultured in SFELE medium; assay type: cell-based, mouse; conditions: for Total colony numbers from 1,000 "BFU-E" cells: CFU-E 1 cluster / Total colony numbers from 1,000 "BFU-E" cells: large BFU-E >20 clusters / Total colony numbers from 1,000 "BFU-E" cells: small BFU-E 5-20 clusters: CD24 and CD71 10% low BFU-E cells, SFELE, 100 nM Dex and/or 333 μM DMOG
# Experimental: Dexamethasone prevents BFU-E cell exhaustion, which allows more CFU-E cells to be formed. […] (A) The total number of cells formed from 1000 BFU-E cells at different time points. […] Standard deviation between four separate biological experiments is shown in parenthesis (n/d=not determined).
# At daily intervals colony assays were performed (Table 2). As in the experiment in FIG. 3, for the first three days the total number of cells increased at the same rate in all cultures.
# (§4) Colonies were scored after 3 days. […] The number of hemoglobinized early BFU-E and late BFU-E colonies was determined after 8-9 days following staining with 2,7-Diaminofluorene (Sigma Chemical, St. Louis, Mo.).
# BFU-E cells [3] = assay: Colony forming assays of sorted BFU-E fractions (Table S2); assay type: cell-based, mouse; conditions: CD71/CD24a 10% low cells, 100 nM Dex and/or 333 μM DMOG
# Source text: Separation of BFU-E and CFU-E cells by expression of CD71, CD24a or both CD71 and CD24a. C-kit positive BFU-E and CFU-E cells were sorted from FLEP cells based on expression of CD71, CD24a or both CD71 and CD24a. In all experiments the BFU-E fraction was the subset of c-kit^positive FLEP cells with the 10% lowest expression of CD71 and/or CD24a, while the CFU-E fraction was the subset with 20% highest expression of CD71 and/or CD24a. Sorted BFU-E and CFU-E populations were subjected to colony forming assays under two different conditions. […] The number of CFU-E colonies (±standard deviation) is shown. The sorted “BFU-E” populations mostly formed small CFU-E clusters rather than single CFU-E colonies in these assays. These CFU-E clusters are formed by precursors to CFU-Es and were scored separately as multi-CFU-Es. The number of “multi-CFU-Es” is not shown since these cells likely represent the same cells as those forming small BFU-E colonies.
# The potential of the sorted cells to form large BFU-E, small BFU-E, CFU-G/M/Mk, and CFU-GEMM colonies (±standard deviation) was determined by a second assay in methyl cellulose containing 10U Epo, 20 nM IL-3, 20 nM IL-6 and 50 nM SCF per mL, and was scored at day 8-9. […] To determine the effect of DMOG, colony assays of sorted BFU-E (CD71 and CD24a^10% low) cells were also performed in the presence of 333 μM DMOG. In agreement with the finding that DMOG enhances BFU-E self-renewal BFU-E colonies were larger with a more immature appearance in the presence of DMOG and Dex. Therefore, in the presence of DMOG and Dex most BFU-E colonies were scored as “large BFU-Es.”
# No GEMM colonies were formed (Table S2).
# as §4
# [4] = tested on: Lin-Sca-1-c-kit+ bone marrow progenitor population; assay: SFELE culture of Lin neg, c-kit pos, Sca-1 neg bone marrow cells; assay type: cell-based, mouse; conditions: for Enhancement of proliferation by DMOG above the effect of Dex: bone marrow cells, 333 μM DMOG
# Source text: FIGS. 5A-5C. […] Total cell number was counted daily and normalized to the number of cells added to the culture. (n=4). Error bars show one standard deviation.
# In the bone marrow BFU-E cells are found in the Lin^neg, c-kit^pos, Sca-1^neg fraction; this cell population contains mostly a mix of lineage restricted progenitor cells of which a minority are BFU-Es (Pronk et al., 2007).
# [5] = tested on: human peripheral blood erythroid progenitors; assay: Erythroblast formation from human mobilized peripheral blood CD34+ cells; assay type: cell-based; conditions: 100 μM DMOG with 1 nM Dex, human CD34+ derived progenitors
# Experimental: FIG. 6. […] Human mobilized CD34+ cells were first thawed and cultured in serum free medium supplemented with StemSpan® CC100 cytokine mix containing rhSCF, rhFlt-3L, rhIL-3 and rhIL-6 for 5 days. […] Total cell number was counted every other day until cell numbers dropped at day 5+19. More than 95% of cells at the end of the culture have erythroblast morphology (data not shown). […] Error bars show one standard deviation.
# An experiment was performed on human hematopoietic progenitor cells from mobilized peripheral blood CD34+ cells that were first cultured 5 days in serum-free medium containing rhSCF, rhFlt-3L, rhIL-3 and rhIL-6. […] Similarly to the murine cultures >95% of cells at the end of the culture are erythroblasts (data not shown).
# FIH = FIH (Homo sapiens, UniProt Q9NWT6); conditions: cited from earlier work
# Sequence of FIH (Q9NWT6 whole entry): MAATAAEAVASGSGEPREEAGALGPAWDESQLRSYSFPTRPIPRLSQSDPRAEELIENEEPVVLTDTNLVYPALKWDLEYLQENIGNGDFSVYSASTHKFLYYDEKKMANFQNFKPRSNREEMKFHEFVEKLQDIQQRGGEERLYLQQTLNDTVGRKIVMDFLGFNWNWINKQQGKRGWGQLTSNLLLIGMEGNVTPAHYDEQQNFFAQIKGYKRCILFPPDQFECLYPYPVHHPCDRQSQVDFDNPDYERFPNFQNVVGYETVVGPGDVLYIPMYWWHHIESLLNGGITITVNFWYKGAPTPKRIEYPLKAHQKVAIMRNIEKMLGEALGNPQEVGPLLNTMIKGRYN
# HIF prolyl hydroxylase = conditions: cited from earlier work
# [6] = 333 μM DMOG and/or 100 nM Dex versus no additions
# [7] = Day 3 of culture, 100 nM Dex or 333 μM DMOG alone
structure (smiles),measurement,setting,value
"COC(=O)CNC(=O)C(=O)OC [DMOG, dimethyloxalylglycine]",Relative increase in total erythroblast output per BFU-E,BFU-E cells [1]; [6],2.5 fold
same,Enhancement of BFU-E proliferation by DMOG,BFU-E cells [1]; 333 μM DMOG with 10 nM Dex,10 fold
same,Increase by DMOG of BFU-E proliferation in the presence of Dex,BFU-E cells [1]; 333 μM DMOG with 100 nM Dex versus Dex alone,7.3 fold
same,Increase of total number of cells after the first three days,"BFU-E cells [1]; CD24 and CD71 10% low BFU-E cells, 100 nM Dex and/or 333 μM DMOG",remained constant
same,"Total cell expansion from 1000 ""BFU-E"" cells, liquid culture","BFU-E cells [1]; CD24 and CD71 10% low BFU-E cells, SFELE, 100 nM Dex and/or 333 μM DMOG, day 1","4,200"
same,"Total cell expansion from 1000 ""BFU-E"" cells, liquid culture","BFU-E cells [1]; CD24 and CD71 10% low BFU-E cells, SFELE, 100 nM Dex and/or 333 μM DMOG, day 2","26,000"
same,"Total cell expansion from 1000 ""BFU-E"" cells, liquid culture","BFU-E cells [1]; CD24 and CD71 10% low BFU-E cells, SFELE, 100 nM Dex and/or 333 μM DMOG, day 3","130,000"
same,"Total cell expansion from 1000 ""BFU-E"" cells, liquid culture","BFU-E cells [1]; CD24 and CD71 10% low BFU-E cells, SFELE, 100 nM Dex and/or 333 μM DMOG, day 4","430,000"
same,"Total cell expansion from 1000 ""BFU-E"" cells, liquid culture","BFU-E cells [1]; CD24 and CD71 10% low BFU-E cells, SFELE, 100 nM Dex and/or 333 μM DMOG, day 5","820,000"
same,"Total cell expansion from 1000 ""BFU-E"" cells, liquid culture","BFU-E cells [1]; CD24 and CD71 10% low BFU-E cells, SFELE, 100 nM Dex and/or 333 μM DMOG, day 6","890,000"
same,"Total cell expansion from 1000 ""BFU-E"" cells, liquid culture","BFU-E cells [1]; CD24 and CD71 10% low BFU-E cells, SFELE, 100 nM Dex and/or 333 μM DMOG, day 7","1,200,000"
same,"Total cell expansion from 1000 ""BFU-E"" cells, liquid culture","BFU-E cells [1]; CD24 and CD71 10% low BFU-E cells, SFELE, 100 nM Dex and/or 333 μM DMOG, day 8","1,200,000"
same,Increase of proliferation of sorted BFU-E cells,"BFU-E cells [1]; CD71 and CD24a 10% low cells, SFELE, 100 nM Dex and/or 333 μM DMOG, versus no additions",2 fold
same,Increase of proliferation of sorted CFU-E cells,CFU-E cells,do not significantly increase proliferation
same,Relative increase in CFU-E output per BFU-E,BFU-E cells [2]; [6],2.1 fold
same,"Total colony numbers from 1,000 ""BFU-E"" cells: CFU-E 1 cluster",BFU-E cells [2]; day 0 (before culture),30 (±11)
same,"Total colony numbers from 1,000 ""BFU-E"" cells: large BFU-E >20 clusters",BFU-E cells [2]; day 0 (before culture),423 (±31)
same,"Total colony numbers from 1,000 ""BFU-E"" cells: small BFU-E 5-20 clusters",BFU-E cells [2]; day 0 (before culture),262 (±64)
same,"Total colony numbers from 1,000 ""BFU-E"" cells: CFU-E 1 cluster",BFU-E cells [2]; day 1,637 (±227)
same,"Total colony numbers from 1,000 ""BFU-E"" cells: large BFU-E >20 clusters",BFU-E cells [2]; day 1,428 (±72)
same,"Total colony numbers from 1,000 ""BFU-E"" cells: small BFU-E 5-20 clusters",BFU-E cells [2]; day 1,"1,284 (±683)"
same,"Total colony numbers from 1,000 ""BFU-E"" cells: CFU-E 1 cluster",BFU-E cells [2]; day 2,"6,991 (±1,226)"
same,"Total colony numbers from 1,000 ""BFU-E"" cells: large BFU-E >20 clusters",BFU-E cells [2]; day 2,217 (±33)
same,"Total colony numbers from 1,000 ""BFU-E"" cells: small BFU-E 5-20 clusters",BFU-E cells [2]; day 2,"3,232 (±1,416)"
same,"Total colony numbers from 1,000 ""BFU-E"" cells: CFU-E 1 cluster",BFU-E cells [2]; day 3,"23,685 (±5,919)"
same,"Total colony numbers from 1,000 ""BFU-E"" cells: large BFU-E >20 clusters",BFU-E cells [2]; day 3,156 (±69)
same,"Total colony numbers from 1,000 ""BFU-E"" cells: small BFU-E 5-20 clusters",BFU-E cells [2]; day 3,"4,399 (±2,039)"
same,"Total colony numbers from 1,000 ""BFU-E"" cells: CFU-E 1 cluster",BFU-E cells [2]; day 4,"27,530 (±13,756)"
same,"Total colony numbers from 1,000 ""BFU-E"" cells: CFU-E 1 cluster",BFU-E cells [2]; day 5,"26,730 (±9,557)"
same,"Total colony numbers from 1,000 ""BFU-E"" cells: large BFU-E >20 clusters",BFU-E cells [2]; day 5,0
same,"Total colony numbers from 1,000 ""BFU-E"" cells: small BFU-E 5-20 clusters",BFU-E cells [2]; day 5,"1,000 (±365)"
same,"Total colony numbers from 1,000 ""BFU-E"" cells: CFU-E 1 cluster",BFU-E cells [2]; day 6,"9,598 (±8,627)"
same,BFU-Es per plated BFU-E,BFU-E cells [2]; [7],4.8
same,CFU-Es per plated BFU-E,BFU-E cells [2]; [7],24
same,CFU-E colonies,BFU-E cells [3],21 (±11) colonies per 1000 plated cells
same,CFU-G/M/Meg colonies,BFU-E cells [3],5 (±6) colonies per 1000 plated cells
same,GEMM colonies,BFU-E cells [3],0 colonies per 1000 plated cells
same,large BFU-E colonies,BFU-E cells [3],164 (±23) colonies per 1000 plated cells
same,small BFU-E colonies,BFU-E cells [3],243 (±30) colonies per 1000 plated cells
same,Effect on proliferation of bone marrow cells,"[4]; 333 μM DMOG alone, 1 nM and 100 nM Dex",little if any effect
same,Enhancement of proliferation by DMOG above the effect of Dex,[4]; 1 nM Dex,2.1 fold
same,Enhancement of proliferation by DMOG above the effect of Dex,[4]; 10 nM Dex (so in the source),2.4 fold
same,Erythroblasts formed relative to cultures with Dex alone,[5],~10 times
O=C(O)C(=O)N[C@H](Cc1ccccc1)C(=O)O [N-oxalyl-d-phenylalanine],Inhibition of FIH,FIH,inhibit the FIH
same,Inhibition of a HIF prolyl hydroxylase,HIF prolyl hydroxylase,not a HIF prolyl hydroxylase
